Patent US20250084069A1, “GERALEXIN AND USES THEREOF FOR THE TREATMENT OF RETINAL DEGENERATIVE DISEASES” (INSTITUT NATIONAL DE LA SANTÉ ET DE LA RECHERCHE MÉDICALE, priority 2022, published 2025)

Columns and labels:
[1] = system: phosphofructokinase (PFK); assay: Metabolomic analysis of cone-enriched cultures (MetaToul platform); assay type: cell-based, chicken; details: by metabolomic analysis
Excerpt: (§1) G6P: glucose-6-phosphate, F6P; fructose-6-phosphate, F16BP: fructose-1,6-biphosphate, G3P: glycerol-3-phosphate, 2/3PG: 2- and 3-phosphoglycerate and PEP: phosphoenol pyruvate,
(§2) The therapeutic molecule, the acetogenin Geralexin (C37H66O7) (FIG. 1G) was purified to homogeneity from 100 kg of leaves of Uvaria chamae, a medicinal plant. […] We have fractionated Uvaria chamae extract by 7 steps of chromatography and characterized the molecule that we called Geralexin (FIG. 1E). […] Uc acts as RdCVF by stimulating aerobic glycolysis. […] The hydrophobicity of acetogenins allows their penetration into cones where Geralexin could bind and activate aerobic glycolysis (FIG. 2F-H). We search for genes encoding glycolytic enzymes with an expression profile indicating possible function in photoreceptors in our own web database KBaSS. […] PFKFB2 is a bifunctional protein with a N-terminal kinase domain that converts fructose 6 phosphate (F6P) into fructose 2,6 biphosphate (F26BP), an allosteric activator of phosphofructokinase (PFK), which catalyzes the rate-limiting step of glycolysis. […] We have analyzed the metabolome of the cone-enriched cultures exposed to Uc with the platform MetaToul (Toulouse). […] Our hypothesis is that Geralexin could be a treatment, alone or in addition to other interventions for dry AMD by preventing cone outer segment shortening and maintaining central vision.

[2] = system: cones of rd1 retinal explants; assay: Cone protection on cultured retinal explants of the rd1 mouse; assay type: cell-based
[3] = system: cones of cone-enriched cultures from chicken embryo; assay: Cone survival in cone-enriched cultures from chicken embryo (live/dead assay); assay type: cell-based
Excerpt: FIG. 1: Identification of an extract from Uvaria chamae protecting cones by high content screening of 800 extracts from 200 medicinal plants using cone-enriched cultures from chicken embryo. A. The set represents a total of 12,800 tests. a: methanol polyamide, b: ethyl acetate, c: depleted ethyl acetate, d: depleted methanol. The figure gives an overview of the screening. […] C. Chromatogram of the fractionation by HPLC of Uvaria chamae the fraction Ucac3. The eight fractions (Ucac3F 1-8) are indicated by grey/white shading. D. Test of the protective activity on cones of the Ucac3 fractions 1-8. E. Purification scheme. F. Chromatographic profile of purified Geralexin. G. Structure of Geralexin (C37H66O7).
as §2

PFKFB2 mRNA = PFKFB2 mRNA expression by cones of cone-enriched culture, quantitative RT-PCR; assay type: cell-based, chicken
Excerpt: as §1, §2

glucose uptake by cones = assay: Uptake of NBDG (fluorescent deoxyglucose derivative) in cone-enriched cultured cells; assay type: cell-based, chicken
Protocol: FIG. 2: Geralexin protects cones by stimulating aerobic glycolysis. A. Analysis of the effect of cone cell morphology in cone-enriched cultures by Geralexin (UcaC3F8f3). Cells are labeled with calcein AM. […] C. […] G. Comparative analysis of the protection of Geralexin (Uc: G3) on cone-enriched cultures in 15 versus 30 mM glucose. H. Ratio Geralexin+/no Geralexin.
The therapeutic molecule, the acetogenin Geralexin (C37H66O7) (FIG. 1G) was purified to homogeneity from 100 kg of leaves of Uvaria chamae, a medicinal plant. […] We have fractionated Uvaria chamae extract by 7 steps of chromatography and characterized the molecule that we called Geralexin (FIG. 1E). […] Uc acts as RdCVF by stimulating aerobic glycolysis. […] The hydrophobicity of acetogenins allows their penetration into cones where Geralexin could bind and activate aerobic glycolysis (FIG. 2F-H). We search for genes encoding glycolytic enzymes with an expression profile indicating possible function in photoreceptors in our own web database KBaSS. […] PFKFB2 is a bifunctional protein with a N-terminal kinase domain that converts fructose 6 phosphate (F6P) into fructose 2,6 biphosphate (F26BP), an allosteric activator of phosphofructokinase (PFK), which catalyzes the rate-limiting step of glycolysis. […] We have analyzed the metabolome of the cone-enriched cultures exposed to Uc with the platform MetaToul (Toulouse). […]

CCCCCCCCCC1OC1C1CCC(/C=C\C=C\CCC(O)C(O)CCC(O)CCCCCCCCCCC(=O)O)O1 (stereo not shown) [Geralexin]
phosphofructokinase (PFK) activity [1]: Increase phosphofructokinase (PFK) activity
protection of cones / cone survival [2]: Protection of cones
protective effect on cones after silencing BSG1 ([3]; cone-enriched culture after electroporation of a micro RNA targeting BSG1): Absence of reduction of the protective effect
cone survival / protection of cones ([3]; cone-enriched cultures from chicken embryo): stimulates aerobic glycolysis and cone survival
effect of oxamate on the cone survival effect ([3]; cone-enriched cultures, with lactate dehydrogenase inhibitor oxamate): Reduction of the protection of cone
expression of PFKFB2 mRNA (PFKFB2 mRNA): Increase expression of PFKFB2 mRNA
glucose (NBDG) uptake by cones (glucose uptake by cones): Increase of the uptake of NBDG
